Measured values: US20220356162A1, “Heterocyclic Compounds as Lipoxygenase Inhibitors” (Dr. Reddy's Institute of Life Sciences, priority 2019, published 2022)
Like-named read-outs stand apart in the source and are kept apart here.

Legend:
human 12R-LOX enzyme = molecular target: T1, human 12R-LOX enzyme (Homo sapiens, UniProt O75342); assay: Screening of compounds against 12R-LOX in isolated enzyme systems; format: biochemical; settings: for inhibition at 100 µM: read-out: % Inhibition (at 100 μM)
T1 construct: Coding region of the cDNA was amplified from the basic vector pCMV6Neo-12R-LOX (OriGene, USA) and was ligated into pET28(b); His-tag (N); made in house; host or cells: E. coli BL21 Rossetta DE3
T1 sequence (O75342 1-701): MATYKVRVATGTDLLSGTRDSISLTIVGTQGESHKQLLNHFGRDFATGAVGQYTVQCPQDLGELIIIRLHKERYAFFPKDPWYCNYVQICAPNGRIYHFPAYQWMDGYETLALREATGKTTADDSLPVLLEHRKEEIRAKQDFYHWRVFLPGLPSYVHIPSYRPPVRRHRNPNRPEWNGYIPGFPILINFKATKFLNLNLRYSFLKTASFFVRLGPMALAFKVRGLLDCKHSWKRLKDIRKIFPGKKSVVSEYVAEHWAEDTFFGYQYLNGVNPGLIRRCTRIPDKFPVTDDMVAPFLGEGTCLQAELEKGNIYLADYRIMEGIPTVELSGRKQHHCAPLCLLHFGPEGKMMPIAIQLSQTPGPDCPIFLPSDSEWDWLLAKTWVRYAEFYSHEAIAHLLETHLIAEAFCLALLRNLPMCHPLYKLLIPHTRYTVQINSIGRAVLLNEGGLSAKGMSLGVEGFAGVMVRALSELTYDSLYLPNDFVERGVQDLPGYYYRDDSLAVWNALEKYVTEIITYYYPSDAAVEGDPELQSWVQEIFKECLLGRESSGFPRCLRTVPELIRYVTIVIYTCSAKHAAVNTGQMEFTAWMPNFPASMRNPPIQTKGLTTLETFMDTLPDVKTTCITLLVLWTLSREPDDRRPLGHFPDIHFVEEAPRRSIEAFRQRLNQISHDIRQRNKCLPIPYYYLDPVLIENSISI
Text: Human 12R-LOX gene was cloned and expressed as an N-terminally His-tagged fusion protein. Coding region of the cDNA was amplified from the basic vector pCMV6Neo-12R-LOX (OriGene, USA) and was ligated into pET28(b), a prokaryotic protein expression vector. E. coli BL21 Rossetta DE3 (an engineered strain of BL21) was transformed with the pET28(b) recombinant vector containing Kanamycin and chloramphenicol resistance gene as the selection markers. Single colony selected on kanamycin and chloramphenicol was checked for the expression of the protein. For this single colony was cultured at 37° C. in LB medium containing […] kanamycin and […] chloramphenicol to reach an absorbance of 0.6 at 600 nm. The cultured bacteria were then induced to express recombinant protein by using isopropyl β-D-thiogalactopyranoside (IPTG) (1 mM final concentration) at 18° C. The culture was incubated for 8-12 h and then the culture was spun down to collect the bacterial cells. The cells were re-suspended in the required amount of phosphate buffer saline (PBS) containing protease inhibitor. The cells were then lysed by sonication to extract the protein. The cells were sonicated for 5 min. and then debris was removed by centrifugation at 13000 rpm for 30 min at 4° C. The clear supernatant was collected and was used as the source of enzyme.
Purification of the recombinant 12R-LOX protein was performed using nickel-nitrilotriacetic acid (Ni-NTA) metal-affinity chromatography as per manufacturer's protocol. Briefly, Ni-NTA slurry (500 microliters for 150 mL of culture) was added to the cleared bacterial lysate and mixed gently by shaking at 4° C. for 60 min. Then the lysate—Ni-NTA slurry was loaded into a column. The column was then washed with 10 mL of washing buffer (50 mM phosphate buffer with 300 mM sodium chloride) containing 20 mM imidazole to remove loosely bound proteins. Then tightly bound proteins were eluted from the column with elution buffer (50 mM phosphate buffer with 300 mM sodium chloride) containing 300 mM imidazole. The purified protein fractions were then analyzed further by SDS-PAGE and western blotting to confirm the presence of 12R-LOX (FIGS. 1a and 1b).
Fractions with human 12R-LOX protein were added to a total volume of 0.3 mL of phosphate buffered saline (pH 7.4) and incubated with substrate, arachidonic acid methyl ester. The mixture was vortexed and incubated for 15 min at 37° C. […] After 5 min the reaction was acidified to pH 3 with 50 μL of acetic acid and then the proteins were precipitated with the addition of 0.3 mL of ice-cold methanol. The total mixture was centrifuged (14000 rpm for 15 min) to remove the proteins and the clear supernatant was analysed on reverse phase HPLC (RP-HPLC). The solvent system used was methanol:water:acetic acid in the ratio of 85:15:0.1 with a flow rate of 1 mL/min on a C18 column. The chromatograms were followed by monitoring the absorbance for HETE products at 235 nm. Individual peak areas in each chromatogram were taken for further comparison analysis.
Baicalein, the standard 12R-LOX inhibitor, was used as a positive control for all inhibition assays performed. The compounds were evaluated for their inhibitory action against human 12R-LOX enzyme at 100 μM concentration in vitro. Further, IC50 of the compounds of the present invention were determined.

[1] = 12R-LOX inhibitory activities in vitro
[2] = 12R-LOX inhibitory activities in vitro, 100 μM concentration

Row | SMILES | IC50 (human 12R-LOX enzyme; [1]) [µM] | inhibition at 100 µM (human 12R-LOX enzyme; [2]) [%] | melting point [°C] | inhibition at 100 µM (human 12R-LOX enzyme) [%]
1 | CS(=O)(=O)Nc1ccc(OS(C)(=O)=O)cc1-c1cc(=O)c2ccccc2o1 [Compound 2, 4-(Methylsulfonamido)-3-(4-oxo-4H-chromen-2-yl)phenylmethane Sulfonate] | – | 56 | – | –
2 | CCOc1ccc(N)c(-c2cc(=O)c3ccccc3o2)c1 [Compound 5, 2-(2-Amino-5-ethoxyphenyl)-4H-chromen-4-one] | – | – | 88 to 90 | –
3 | C#CCOc1ccc(N)c(-c2cc(=O)c3ccccc3o2)c1 [Compound 6, 2-(2-Amino-5-(prop-2-ynyloxy)phenyl)-4H-chromen-4-one] | – | – | 153 to 155 | –
4 | C#CCOc1ccc(NS(=O)(=O)c2ccccc2)c(-c2cc(=O)c3ccccc3o2)c1 [Compound 7, N-(2-(4-Oxo-4H-chromen-2-yl)-4-(prop-2-ynyloxy)phenyl)benzene sulfonamide] | – | – | 152 to 154 | 21 ± 7
5 | Nc1ccc(O)cc1-c1cc(=O)c2ccc(F)cc2o1 [Compound 13, 2-(2-Amino-5-hydroxyphenyl)-7-fluoro-4H-chromen-4-one] | – | 21 ± 8.4 | 200 to 202 | –
6 | Nc1ccc(O)cc1-c1cc(=O)c2cc(Br)ccc2o1 [Compound 14, 2-(2-Amino-5-hydroxyphenyl)-6-bromo-4H-chromen-4-one] | – | 6.95 ± 1.6 | > 200 | –
7 | Nc1ccc(O)cc1-c1cc(=O)c2ccc(Br)cc2o1 [Compound 18, 2-(2-Amino-5-hydroxyphenyl)-7-bromo-4H-chromen-4-one] | 98.1 | 53.5 ± 4.2 | > 200 | –

Continued, in another order:

Row | IC50 (human 12R-LOX enzyme; [1]) [µM] | inhibition at 100 µM (human 12R-LOX enzyme; [2]) [%] | melting point [°C] | SMILES | inhibition at 100 µM (human 12R-LOX enzyme) [%]
8 | 188 | 40 | 202 to 204 | Nc1ccc(O)cc1-c1cc(=O)c2ccccc2o1 [Compound 1, 2-(2-Amino-5-hydroxyphenyl)-4H-chromen-4-one] | –
9 | 97 | 51 | – | Nc1cc(I)c(O)cc1-c1cc(=O)c2ccccc2o1 [Compound 3, 2-(2-Amino-5-hydroxy-4-iodophenyl)-4H-chromen-4-one] | –
10 | – | – | 118 to 120 | COc1ccc(N)c(-c2cc(=O)c3ccccc3o2)c1 [Compound 4, 2-(2-Amino-5-methoxyphenyl)-4H-chromen-4-one] | –
11 | – | – | > 200 | O=c1cc(-c2cc(O)ccc2NS(=O)(=O)c2ccccc2)oc2ccccc12 [Compound 8, N-(4-Hydroxy-2-(4-oxo-4H-chromen-2-yl)phenyl)benzene Sulfonamide] | –
12 | – | – | 154 to 156 | C#CCOc1ccc(NC(=O)c2ccccc2)c(-c2cc(=O)c3ccccc3o2)c1 [Compound 11, N-(2-(4-Oxo-4H-chromen-2-yl)-4-(prop-2-ynyloxy)phenyl) benzamide] | –
13 | – | – | > 200 | O=C(Nc1ccc(O)cc1-c1cc(=O)c2ccccc2o1)c1ccccc1 [Compound 12, N-(4-Hydroxy-2-(4-oxo-4H-chromen-2-yl)phenyl)benzamide] | –
14 | – | 6.33 ± 5.9 | > 200 | O=c1cc(-c2cc(O)ccc2NS(=O)(=O)c2ccc([N+](=O)[O-])cc2)oc2ccccc12 [Compound 15, N-(4-Hydroxy-2-(4-oxo-4H-chromen-2-yl)phenyl)-4-nitrobenzenesulfonamide] | –
15 | – | 38.3 ± 3.8 | 130 to 132 | Nc1ccc(O)cc1-c1cc(=O)c2cc(O)ccc2o1 [Compound 16, 2-(2-Amino-5-hydroxyphenyl)-6-hydroxy-4H-chromen-4-one] | –
16 | – | 30 ± 5 | 160 to 162 | O=c1cc(-c2cc(O)ccc2NS(=O)(=O)c2ccc(C(F)(F)F)cc2)oc2ccccc12 [Compound 17, N-(4-Hydroxy-2-(4-oxo-4H-chromen-2-yl)phenyl)-4-(trifluoromethyl)benzenesulfonamide] | –
